As usually defined, the melting point is the temperature of the solid-liquid transition.

Regarding `CCOCc1cc2ccccc2oc1=Nc1ccccc1`, the melting point was in the range of 71 to 72 °C. The value for `CCC(=O)N(CC)c1cccc(-c2ccnc3c(C(=O)c4ccco4)cnn23)c1` was 165 to 167 °C; that for `CCOP(=O)(CNC(=O)OC(C)(C)C)CNC(=O)OC(C)(C)C` was 118 to 120 °C. As to `Nc1c(-c2cc(Cl)ccc2O)c2cc(I)ccc2[nH]c1=O`, the melting point lay within 160 to 162 °C. Turning to `O=C(Nc1ccc(C(=O)Nc2ccc(Br)cn2)cn1)c1ccc(Br)nc1`, the melting point lay within 245 to 247 °C. The result for `COc1ccc(N2C(=O)C(O)=C(C(=O)c3ccc(C(C)C)cc3)C2c2ccc(OC(F)(F)F)cc2)nn1` (centres undefined) reads 271 °C; that for `O=C(O)CCCCc1ccc(NS(=O)(=O)c2ccc(Cl)cc2)cn1`, 145 to 147 °C. The value for `CCOC(=O)CNc1ncccc1NC(=O)c1ccc(C)s1` was 112 to 115 °C; that for `CC12CCCC1C1CCc3cc(C(=O)O)ccc3C1CC2` (centres undefined) was 235 to 240 °C. `COCCOc1ccc(-c2cncc(C#N)c2Nc2ccc3[nH]ccc3c2C)cc1OC` came in with a melting point of 208 to 210 °C. Take `Cn1ccnc1N1CCC(c2ccc(N)cc2)CC1`: the melting point lay in the range of 187 to 188 °C.

As to `CC(=O)Nc1cc2c(cc1[N+](=O)[O-])N(NC(C)=O)CC2`, the melting point fell in the range of 212 to 213 °C.

In turn, `C=C1CC2C(=CCC3(C)C2CC(C)C3(O)C(C)=O)C2(C)CCC(=O)C=C12` (centres undefined) came in with a melting point of 157 to 158 °C.

For the compound `CC(C)(C)N1C(=O)c2cc([N+](=O)[O-])cnc2C1=O`, the melting point lay within 170 to 173 °C. As for `O=c1ccc2c(-n3cnc([N+](=O)[O-])c3)nccc2[nH]1`, the melting point fell in the range of 298 to 300 °C.

`COc1cccc2c(Nc3ccc(C)c(O)c3)c(C#N)cnc12` displayed a melting point of 148 to 150 °C. `Cc1c(N)cccc1OC[C@@H]1CCCN1C(=O)OC(C)(C)C` had a melting point of 110 °C.

Consider `COc1ccc2c(c1)OC(CCO)C(=O)N2Cc1cccc([N+](=O)[O-])c1` (centres undefined), for which the melting point lay within 116 to 118 °C.

For the compound `COC(=O)[C@H](Cc1ccc(-c2c(C)cc(C(F)(F)F)n(C)c2=O)cc1)NC(=O)c1c(Cl)cccc1Cl`, the melting point fell in the range of 170 to 173 °C. With `COC(=O)c1ccc2c(=O)c(Cc3ccccc3)coc2c1`, the melting point lay within 98 to 100 °C.

`C#CC1=Cc2ccccc2Sc2ccc(S(C)(=O)=O)cc21` gave a melting point of 140 to 143 °C. The value for `COc1ccc(S(=O)(=O)Nc2cccnc2Nc2ccccc2C)cc1` was 80 to 81 °C; that for `CCOC(=O)c1c(-c2ccccc2)c2cc(Cl)ccc2[nH]c1=O` was 223 to 224 °C. On to `COC(=O)C(=C1NCCCO1)[N+](=O)[O-]`, for which the melting point lay within 132 to 133 °C.

Turning to `COc1ccc(CCN2CCc3cc(OC[C@H]4CO[C@](Cn5ccnc5)(c5ccc(Cl)cc5Cl)O4)ccc3C2)cc1` (racemic), the melting point is 121 to 122 °C. Regarding `O=C1CN(CCC(O)C2CCCCC2)C(=O)N1` (centres undefined), the melting point was 97 to 99 °C.

The compound `Cn1c(C(F)(F)F)ccc(-c2cc(S(C)(=O)=O)c(Cl)cc2F)c1=O` gave a melting point of 144 to 145 °C. The compound `O=C(Cc1cn(-c2ccccc2)nc1-c1ccc(Cl)cc1)NO` returned a melting point of 168 to 169 °C. `COC(=O)Cc1ccc(CNC(=O)C2Cc3ccccc3N2S(=O)(=O)c2ccc(-c3cccc(C(F)(F)F)c3)cc2)c(F)c1` (centres undefined) displayed a melting point of 50 to 57 °C.

`CC(C)(C)c1ccc(-c2c(Cl)c(CN3C(=O)CCC3=O)nc3sc4c(c23)CCNC4)cc1`: the melting point fell in the range of 210 to 212 °C. Turning to `CC(=O)c1ccc(NC(=O)C(C)(C)C)nc1`, the melting point lay in the range of 113 to 115 °C. The result for `COc1c(C)cc(C)cc1CCC(=O)O` reads 74 to 75 °C.

Regarding `CN(CCOc1ccc(CO)cc1)c1ncccn1`, the melting point is 73 to 74 °C. Compound `CC1(c2nc(NC3CC3)nc(N3CCOCC3)n2)CC1` came in with a melting point of 94 to 95 °C. In turn, `COc1ccc(C(=O)OC2C(OC(C)=O)C=C(C)C(=O)CC2(C)C)cc1` (centres undefined) registered a melting point of 78 to 80 °C. In turn, `CC(=O)OCc1cc(Cl)ccc1Sc1ccccc1CN(C)C` had a melting point of 41 to 44 °C. The compound `C=CC[C@@H]1C[C@@H](COc2ccc(-c3ccc(C#N)cc3)cc2)N(CCCC2CCCCC2)C1=O` returned a melting point of 157 to 159 °C. In turn, `O=C1CCCC(=NNc2ccccc2)C1` came in with a melting point of 187 to 189 °C. With `Cc1cccc(C(=O)O)c1N(C)S(=O)(=O)c1ccc(OCCCNC(=O)c2cc3ccccc3[nH]2)cc1`, the melting point was found to be 199 °C.

Regarding `CS(=O)c1ccc(C2=C(c3cc(F)cc(F)c3)C(=O)C(C)(C)O2)cc1` (centres undefined), the melting point lay within 133 to 134 °C. `c1ccc(CN2c3ccccc3-c3noc4c3C2CCC4)cc1` (centres undefined) gave a melting point of 162 to 164 °C.

In turn, `O=C(O)CC(CNC(=O)C1Cc2ccccc2N1S(=O)(=O)c1ccc(-c2cccc(C(F)(F)F)c2)cc1)c1ccccc1` (centres undefined) showed a melting point of 90 °C. `N#Cc1ccc(S(=O)(=O)Nc2cccc3c(C#N)c[nH]c23)cc1` came in with a melting point of 250 to 252 °C.

On to `CCOC(=O)NN=C(c1ccc(Cl)cc1)c1ccc(OC(=O)CC)cc1`, for which the melting point was in the range of 120 to 146 °C. The value for `O=C(c1ccccc1)c1cnc2c(c1)CCC(c1ccc(Cl)c(Cl)c1)O2` (centres undefined) was 155 to 158 °C; that for `COc1c(C(=O)O)n(C)c(=O)c2ccc(Cl)cc12` was 216 to 217 °C; that for `NNC1=NCCCCN1` was 133 to 135 °C. Consider `Cc1ncccc1CC(=NC#N)NC(NC(=O)Cc1ccc2ncccc2c1)C(C)(C)C` (centres undefined), for which the melting point was 132 to 134 °C. `NC(=O)c1ccc(Cl)c(Br)c1` yielded a melting point of 146 to 147 °C.

The compound `CCCCNCC(=O)Nc1ccc2c(c1)C(=O)c1cc(NC(=O)CNCCCC)ccc1C2=O` had a melting point of 125 °C. For `COc1cc(Cl)ccc1N=c1scc(-c2ccc(Cl)c(S(=O)(=O)N(C)C)c2)n1C`, the melting point fell in the range of 148 to 150 °C. In the case of `O=C(CS(=O)(=O)C(c1ccc(Cl)cc1)c1ccc(Cl)cc1)C(F)(F)F`, the melting point lay in the range of 60 to 62 °C. `COc1cc(C=CC(=O)Nc2cnc3ccc(C)cc3c2-c2ccccc2Cl)cc(OC)c1O` gave a melting point of 235 to 236 °C. In the case of `CC(=O)OC1CCC2(C)C(=CCC3C2CC(c2cccnc2)C2(C)C=CCC32)C1` (centres undefined), the melting point was in the range of 144 to 145 °C. In turn, `CC(=O)N(C(C)=O)C(C)=C1CC2C3CC4C2C4C13` (centres undefined) registered a melting point of 112 to 128 °C.

In turn, `CS(=O)(=O)c1ccc(C(=O)O)c([N+](=O)[O-])c1` showed a melting point of 204 to 206 °C.

The compound `CN1CCN(CC2COc3cc4ncnc(Nc5cccc(Br)c5)c4cc3O2)CC1` (centres undefined) showed a melting point of 182 to 189 °C. In turn, `CCOC(=O)c1sc2[nH]c(=O)c(=O)[nH]c2c1C` showed a melting point of more than 300 °C.

`CCN(CC)CCNC(=O)c1c(I)ccc2cc3ccccc3nc12` returned a melting point of 81 to 83 °C. For `CCCCCCCCCCCCNC(=O)c1cc(-c2ccc(OC)cc2)c(OCCO)c(-c2cccc(Cl)c2)c1`, the melting point lay within 114 to 117 °C. Take `O=C1C=C(NC(=O)C(=O)c2cn(Cc3ccc(F)cc3)c3ccccc23)CO1`: the melting point lay within 260 to 262 °C. On to `CCOC1=NS(=O)C(C(N)=O)=C1Br` (centres undefined), for which the melting point lay within 168 to 172 °C. On to `CN(C)CCN(C(=O)OC(C)(C)C)C1=NCC(=O)N(C)c2ccccc21`, for which the melting point was less than 35 °C.

As to `CN(C=O)c1cc(F)ccc1C(=O)COC(=O)c1ccccc1`, the melting point fell in the range of 93 to 95 °C. The result for `O=Cc1ccc(OCC(F)(F)F)c([N+](=O)[O-])c1` reads 126 to 127 °C; that for `Cc1nc2c(s1)-c1nc(N)ncc1CC2`, 241 to 243 °C; that for `O=C(O)CCCCC(=O)Oc1ccc([N+](=O)[O-])cc1`, 104 to 105 °C.

As for `CC(C)(C)OC(=O)N1CCc2c(n(CCOc3ccccc3)c3c(Cl)c(Cl)ccc23)CC1`, the melting point lay within 138 to 140 °C. Compound `CNC(=O)C(Cc1ccc(O)cc1)NC(=O)Nc1n[nH]c(=S)s1` (centres undefined) came in with a melting point of 198 to 200 °C. In turn, `COc1ccc(C2(C#Cc3ccnc(N)n3)CCC(=O)CC2)cc1OC1CCCC1` registered a melting point of 68 to 70 °C. `CCOC(=O)C(C)ON=C(C)C` (centres undefined) returned a melting point of 59 to 61 °C. The result for `N#CN1CCC2(CC1)CN(c1ccccc1Cl)c1ccccc12` reads 158 to 160 °C; that for `O=c1ccc(-c2ccc(O)cc2)cn1Cc1ccc(Cl)cc1F`, 207 °C. The value for `CCO[C@H]1C(C(=O)NCc2ccc(Cl)cc2)=C(C)OC(OCC)(OCC)[C@H]1C` (relative stereo) was 97 to 100 °C. For `CNc1c(C#N)c(C(F)(F)F)nn1-c1c(Cl)cc(C(F)(F)F)cc1Cl`, the melting point is 200 to 202 °C. `CCOC(=O)c1cnc2ccc(C(=O)c3ccc(Cl)cc3)cc2c1O` showed a melting point of more than 300 °C.

Regarding `Cc1cccc(C(C)C)c1NC(=O)NCC1(c2ccccc2)CCCC1`, the melting point lay in the range of 157 to 159 °C. The result for `CC(C)c1cccc(C(C)C)c1NC(=O)Nc1ccccc1C(=O)NC1CCN(C(c2ccccc2)c2ccccc2)CC1` reads 118 °C. Consider `CCCCc1ccc(Oc2ccc(C#CC(C)N(O)C(N)=O)o2)cc1` (centres undefined), for which the melting point was in the range of 116 to 118 °C.

Take `CC(=O)N1Cc2c(-c3noc(C4CC4)n3)ncn2-c2ccccc21`: the melting point lay in the range of 187 to 188 °C. The result for `O=[N+]([O-])c1nccn1C1OC(CO)C(O)C1O` (centres undefined) reads 160 °C; that for `Cc1nc2c(N)nc3ccccc3c2n1CCCNC(=O)C(C)C`, 239 to 240 °C; that for `CCOC(=O)C1=C(C)NC(=S)N(C(=O)c2ccc(OC)cc2)C1c1cccc([N+](=O)[O-])c1` (centres undefined), 130 to 132 °C. Consider `CC(=O)OC1CCC2(C)C(CCC3C2CCC2(C)C(=O)CCC32O)C1` (centres undefined), for which the melting point lay in the range of 182 to 184 °C. The compound `CCOC(=O)[C@H](CCc1ccccc1)N[C@@H](C)C(=O)N1C(=O)N(Cc2ccccc2)C[C@H]1C(=O)O` gave a melting point of 56 to 57 °C. The compound `COC(=O)c1ccc(C(=O)CCCOC(C)=O)cc1` had a melting point of 61 to 62 °C. The value for `N#Cc1cccc(-c2ccccc2O)c1` was 120 to 123 °C; that for `CN1CCN(c2n[nH]c(-c3ccc(F)cc3)c2-c2ccncc2)CC1` was 238 to 240 °C. The result for `Cn1c(=O)c2[nH]c(C3(N)CCCC3)nc2n(C)c1=O` reads 288 to 290 °C.

The values are drawn from a melting point compilation (Tetko et al.; mined from patent text by program, amines drawn as free bases though some values may be those of a salt).
